Values quoted from earlier work, collected in US12384832B2 (priority 2019, dated 2025).
Where two headings read alike, the source gives them in different places.

Target: TEM-1 (Escherichia coli, UniProt P62593)
Conditions: read-out: KM TEM-1, cited from earlier work

Sequence of TEM-1 (P62593 24-286 limits assumed): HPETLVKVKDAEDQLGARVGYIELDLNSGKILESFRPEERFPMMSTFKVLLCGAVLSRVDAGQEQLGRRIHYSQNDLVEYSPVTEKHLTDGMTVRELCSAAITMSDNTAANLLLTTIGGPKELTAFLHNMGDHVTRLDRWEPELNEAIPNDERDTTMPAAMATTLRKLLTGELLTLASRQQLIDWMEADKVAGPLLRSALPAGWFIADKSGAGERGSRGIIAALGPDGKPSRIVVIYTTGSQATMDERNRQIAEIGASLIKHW

SMILES	Km (substrate hydrolysis)	Km
CC1(C)S[C@@H]2[C@H](NC(=O)[C@H](N)c3ccccc3)C(=O)N2[C@H]1C(=O)O [ampicillin]	40 µM	–
CC1(C)S[C@@H]2[C@H](NC(=O)Cc3ccccc3)C(=O)N2[C@H]1C(=O)O [benzylpenicillin]	26 µM	–
O=C(Cc1cccs1)N[C@@H]1C(=O)N2C(C(=O)[O-])=C(C[n+]3ccccc3)CS[C@H]12 [cefaloridine]	–	244 µM
